What was measured:
[1] = Inhibition of HIV1 3B gp41-mediated cell-cell fusion between viral envelope expressing virus-infected HL2/3 cells to human MAGI-CCR5 cells after 6 hrs by luciferase reporter gene assay; format: cell-based; conditions: Human immunodeficiency virus 1, MAGI-CCR5, 6 h
[2] = Binding affinity to gp41 in HIV1 by fluorescence analysis; set-up: species or system Human immunodeficiency virus 1
[3] = Cytotoxicity against human MAGI-CCR5 cells assessed as cell viability by MTS assay; format: cell-based

IC50 [1] [µM] | Ki [2] [µM] | SMILES | CC50 [3] [µM]
43 | 13 | Cc1ccc(OCCn2cc(/C=C/C(=O)O)c3ccccc32)cc1 | > 50
160 | 4.45 | Cc1cccc(NC(=O)CN2C(=O)N/C(=C/c3cccn3-c3cccc(C(=O)O)c3)C2=O)c1 | > 100
34 | 7.1 | O=C(CN1C(=O)N/C(=C/c2ccccc2OCc2ccc(C(=O)O)cc2)C1=O)Nc1ccccc1 | > 50

More lines, now with the values behind:

SMILES | IC50 [1] [µM] | Ki [2] [µM] | CC50 [3] [µM]
CCc1nc2nc(CSc3nnc(NC(=O)COc4ccc(C)c(C)c4)s3)cc(O)n2n1 | 53.5 | 2.55 | > 50
O=C(O)c1cccc(N/N=C2\C(=O)N(c3nc(-c4ccccc4)cs3)N=C2c2ccccc2)c1 | 4.64 | 0.2 | 53
Cc1ccc(-c2nc(SCC(=O)Nc3ccc(C)c(C)c3)n3[nH]c(=O)cc3n2)cc1 | 13.3 | 0.46 | > 50
COc1ccc(C(=O)Oc2ccc(Br)cc2/C=N/N=C2\NC(=O)[C@H](CC(=O)O)S2)cc1 | 41.1 | 1.6 | 208
